From paper PMC5743680, “Bleogens: Cactus-Derived Anti-Candida Cysteine-Rich Peptides with Three Different Precursor Arrangements” (Frontiers in Plant Science, 2017)

Assay: Heparin affinity chromatography
Assay type: binding
Settings: TSKgel Heparin-5PW column, 10 mM phosphate buffer, pH 7.2
Method: Heparin binding chromatography was performed by high performance liquid chromatography (HPLC; Shimadzu, Japan). A linear gradient of mobile phase A (10 mM phosphate buffer, pH 7.2) and mobile phase B (0.75 M NaCl in 10 mM phosphate buffer, pH 7.2) was used with a TSKgel Heparin-5PW column ([…], 10 μm; Tosoh Bioscience, Japan).

With SIGGIR the “binding to heparin HPLC affinity column” value was “did not bind”.
